In patent US20180303776A1, “LIPOSOMAL REHYDRATION SALT FORMULATION FOR TREATMENT OF ALCOHOL RELATED DISORDERS” (EINSOF BIOHEALTH LIMITED, priority 2017, published 2018):

Legend:
IκBα = IκBα mRNA and protein expression in frontal cortex; assay type: in vivo, rats; conditions: OEA pretreatment
Protocol: (§1) There now follows examples of treatment of ethanol intoxication and using OEA as Example 10. Rats received an initial dose of 5 g/kg of 30% (w/v) ethanol via oral probe and a maximum of 3 g/kg of ethanol in subsequent doses every 8 hours. Blood was collected from the tail vein 2 hours before and 2 hours after 15:00 hours of ethanol administration by gavage on days 2 to 4 in order to determine blood ethanol levels (BEL), and treated of keeping toxic ethanol doses BEL relatively constant (see the table below). Mean ethanol/rat doses were 8 g/kg, 7.5 g/kg, 7.9 g/kg and 4.9 g/kg, day 1 to 4, respectively, and the mean ethanol/rat/day (1-4) was 7.06 g/kg. In a first experiment, the time-course of the neuro-inflammation was verified after 1 hour, 6 hours and 24 hours from the last feeding forced with ethanol. […]
(§2) HMGB1 is a dangerous cytokine recruited by alcohol that activates the MyD88-dependent TLR4 immune signaling pathway, inducing the translocation of the p65 subunit of NF-kB to the nucleus and increasing its transcriptional activity. […] Lipid peroxidation, measured by the accumulation of 4-HNE, induces a redox cell state related to activation of caspase 3 and cell death by caspase-mediated apoptosis 8. […]
(§3) The western blot analysis was studied. […] Autoradiography was quantified by densitometry (NIH ImageJ® software, National Biosciences, Lincoln, Nebr. USA) and expressed as optical density (O.D.). […]

[1] = tested on: rats exposed to ethanol intoxication; test: Elevated cross maze test during ethanol abstinence; assay type: in vivo
Protocol: Tests were conducted to determine the effects of repeated OEA administration on depressive and anxiety behavior during early ethanol abstinence. Animals were tested in the cross-raised labyrinth 24 hours and 12 days after the alcohol abuse protocol and forced swimming test was performed 48 hours after the last administration of ethanol. [HMGB1 (High Mobility Group Box 1): high mobility group 1 box; TLR4 (Toll-Like Receptors 4): Receptors type Toll 4: MD2 (Myeloid Differentiation Protein 2): myeloid differentiation protein 2; MyD88 (Myeloid Differentiation Factor 88): myeloid differentiation factor 88; NF-kB (Nuclear Farctor kB): nuclear transcription factor kappa B (p65 subunit); IkB: inhibitory protein IkappaB; TNF-α (Tumor Necrosis Factor α): tumor necrosis factor alpha; IL-1β (Interleukin β): 1interleukin-1 beta; MCP-1 (Monocyte Chemoattractant Protein 1): monocyte chemotactic protein 1; INOS (inducible Nitric Oxide Synthase): inducible nitric oxide synthase; COX-2 (Cyclooxygenase 2): cyclooxygenase 2; 4-HNE (4-hydroxynonenal): 4-hydroxynonenal]. […] The forced swimming test was performed on the rats two days after the last forced feed with ethanol and the specific behaviors were recorded with a digital video camera for 5 minutes. […]

IL-1β = IL-1β in frontal cortex and plasma after ethanol intoxication; assay type: in vivo, rats; conditions: OEA pretreatment
Protocol: as §1, with “ethanol. In the second experiment, OEA (5 mg/kg, ip, 10 mg/kg loading dose) was injected as pretreatment 10 min before each ethanol forced feed, and brain/blood tissue samples were collected 2-4 hours after the last administration of ethanol.” for “ethanol.”
as §2
(§4) Real-time Polymerase Chain Reaction Analysis (RT-PCR) were studied. […] Quantitative changes in mRNA levels were estimated by RT-PCR, carried out in the presence of the SYBR green probe using a […] reaction in a Rotor-Gene (Corbett Research®, Mortlake, NSW, Australia).
(§5) Levels of HMGB1, pro-inflammatory cytokines (TNF-α, IL-1β) and chemokines MCP-1 were studied. Levels of HMGB1, TNF-α, IL-1β and soluble MCP-1 were determined by Enzyme-linked immunosorbent assay (ELISA) 30 (Elabscience Biotechnology Co., Ltd., China, for HMGB-1; RayBiotech®, GA, USA, for the TNF-α, IL-1β and MCP-1). The nuclear/cytosolic HMGB1 fraction was determined by Western blot analysis.

[2] = tested on: rats exposed to ethanol intoxication; test: Forced swimming test during early ethanol abstinence; assay type: in vivo; conditions: forced swimming test 48 hours after last ethanol administration; OEA pretreatment
Protocol: Tests were conducted to determine the effects of repeated OEA administration on depressive and anxiety behavior during early ethanol abstinence. Animals were tested in the cross-raised labyrinth 24 hours and 12 days after the alcohol abuse protocol and forced swimming test was performed 48 hours after the last administration of ethanol. [HMGB1 (High Mobility Group Box 1): high mobility group 1 box; TLR4 (Toll-Like Receptors 4): Receptors type Toll 4: MD2 (Myeloid Differentiation Protein 2): myeloid differentiation protein 2; MyD88 (Myeloid Differentiation Factor 88): myeloid differentiation factor 88; NF-kB (Nuclear Farctor kB): nuclear transcription factor kappa B (p65 subunit); IkB: inhibitory protein IkappaB; TNF-α (Tumor Necrosis Factor α): tumor necrosis factor alpha; IL-1β (Interleukin β): 1interleukin-1 beta; MCP-1 (Monocyte Chemoattractant Protein 1): monocyte chemotactic protein 1; INOS (inducible Nitric Oxide Synthase): inducible nitric oxide synthase; COX-2 (Cyclooxygenase 2): cyclooxygenase 2; 4-HNE (4-hydroxynonenal): 4-hydroxynonenal]. In this third experiment (n=25), the treatment with ethanol intoxication and OEA pretreatment applied in experiment 2 was repeated, and the animals were submitted to the maze test in a high cross 24 hours and 12 days after the last forced ethanol administration and the forced swimming test 48 hours after the ethanol intoxication protocol. Behavioral tests were studied. The forced swimming test was performed on the rats two days after the last forced feed with ethanol and the specific behaviors were recorded with a digital video camera for 5 minutes. These same rats were also tested by the high cross maze test equipped with infrared light (Panlab, Barcelona, Spain) 1 and 12 days after the last forced feed with ethanol, allowing the animals to freely explore the labyrinth during 5 minutes. Tests were performed 3 hours after onset of the dark phase.

MyD88 = MyD88 protein expression in frontal cortex after ethanol intoxication; assay type: in vivo, rats; conditions: OEA pretreatment
Protocol: as §1, §2, §3

iNOS = iNOS mRNA expression in frontal cortex; assay type: in vivo, rats; conditions: OEA pretreatment
Protocol: as §1, with “g/kg.” for “g/kg. In a first experiment, the time-course of the neuro-inflammation was verified after 1 hour, 6 hours and 24 hours from the last feeding forced with ethanol.”
as §2, §4

p65 subunit of NF-kB = test: NF-κB p65 expression and transcription factor activity in frontal cortex; assay type: in vivo, rats
Protocol: as §1, with “g/kg.” for “g/kg. In a first experiment, the time-course of the neuro-inflammation was verified after 1 hour, 6 hours and 24 hours from the last feeding forced with ethanol.”
as §2
Real-time Polymerase Chain Reaction Analysis (RT-PCR) were studied. […] Quantitative changes in mRNA levels were estimated by RT-PCR, carried out in the presence of the SYBR green probe using a […] reaction in a Rotor-Gene (Corbett Research®, Mortlake, NSW, Australia). […]

HMGB1 = HMGB1 expression in frontal cortex after ethanol intoxication; assay type: in vivo, rats
Protocol: as §1, §2, §3

TLR4 = TLR4 mRNA and protein expression in frontal cortex after ethanol intoxication; assay type: in vivo, rats; conditions: OEA pretreatment
Protocol: as §1, §2, §3

MD2 = MD2 protein expression in frontal cortex after ethanol intoxication; assay type: in vivo, rats; conditions: OEA pretreatment
Protocol: as §1, §2, §3

corticosterone = test: Plasma corticosterone levels; assay type: in vivo, rats
Protocol: (§6) There now follows examples of treatment of ethanol intoxication and using OEA as Example 10. Rats received an initial dose of 5 g/kg of 30% (w/v) ethanol via oral probe and a maximum of 3 g/kg of ethanol in subsequent doses every 8 hours. Blood was collected from the tail vein 2 hours before and 2 hours after 15:00 hours of ethanol administration by gavage on days 2 to 4 in order to determine blood ethanol levels (BEL), and treated of keeping toxic ethanol doses BEL relatively constant (see the table below). Mean ethanol/rat doses were 8 g/kg, 7.5 g/kg, 7.9 g/kg and 4.9 g/kg, day 1 to 4, respectively, and the mean ethanol/rat/day (1-4) was 7.06 g/kg. In a first experiment, the time-course of the neuro-inflammation was verified after 1 hour, 6 hours and 24 hours from the last feeding forced with ethanol. In the second experiment, OEA (5 mg/kg, ip, 10 mg/kg loading dose) was injected as pretreatment 10 min before each ethanol forced feed, and brain/blood tissue samples were collected 2-4 hours after the last administration of ethanol.
(§7) Experimental design, drug administration and tissue/plasma collection are now discussed. […]
(§8) Plasma levels of corticosterone and LPS were studied. Corticosterone and LPS were measured in plasma using commercially available kits by radioimmunOEAsay (RIA) (Coat-A-Count®, Siemens, La., USA) or colorimetric enzyme reaction (HyCult Biotech, Uden, respectively).

TNF-α = TNF-α in frontal cortex and plasma after ethanol intoxication; assay type: in vivo, rats; conditions: OEA pretreatment
Protocol: as §6, with “of ethanol. […]” for “of ethanol.”
as §2, §4, §5

4-HNE = test: Lipid peroxidation (HNE adduct formation) in frontal cortex; assay type: in vivo, rats; conditions: significant only in the animals treated with ethanol
Protocol: as §1, with “g/kg.” for “g/kg. In a first experiment, the time-course of the neuro-inflammation was verified after 1 hour, 6 hours and 24 hours from the last feeding forced with ethanol.”
as §2
Lipid peroxidation was studied. […] Levels of HNE protein adducts in cerebral cortex lysates were measured using a competitive 96-well OxySelect™ adduct HNE ELISA Kit (Cell Biolabs®, San Diego, Calif., US).

COX-2 = COX-2 mRNA expression in frontal cortex; assay type: in vivo, rats; conditions: 2-4 hours after last ethanol administration, OEA pretreatment
Protocol: as §1, with “g/kg.” for “g/kg. In a first experiment, the time-course of the neuro-inflammation was verified after 1 hour, 6 hours and 24 hours from the last feeding forced with ethanol.”
as §2, §4

MCP-1 = MCP-1 levels in frontal cortex after ethanol intoxication; assay type: in vivo, rats; conditions: OEA pretreatment
Protocol: as §1, with “g/kg.” for “g/kg. In a first experiment, the time-course of the neuro-inflammation was verified after 1 hour, 6 hours and 24 hours from the last feeding forced with ethanol.”
as §2
Levels of HMGB1, pro-inflammatory cytokines (TNF-α, IL-1β) and chemokines MCP-1 were studied. Levels of HMGB1, TNF-α, IL-1β and soluble MCP-1 were determined by Enzyme-linked immunosorbent assay (ELISA) 30 (Elabscience Biotechnology Co., Ltd., China, for HMGB-1; RayBiotech®, GA, USA, for the TNF-α, IL-1β and MCP-1). […]

LPS = test: Plasma LPS levels (intestinal permeability to endotoxins); assay type: in vivo, rats; conditions: pretreated with OEA and receiving ethanol; ethanol alone approximately 80%
Protocol: as §6, §7, §8

caspase-8 = test: Caspase-8 mRNA expression in frontal cortex; assay type: in vivo, rats; conditions: OEA pretreatment
Protocol: as §1, with “g/kg.” for “g/kg. In a first experiment, the time-course of the neuro-inflammation was verified after 1 hour, 6 hours and 24 hours from the last feeding forced with ethanol.”
as §2, §4

caspase-3 = test: Caspase-3 expression and activity in frontal cortex; assay type: in vivo, rats; conditions: OEA pretreatment
Protocol: as §6, with “of ethanol. […]” for “of ethanol.”
as §2, §3, §4
Measurement of caspase-3 activity was studied. Caspase-3 activity was determined using a fluorometric assay kit (Abnova®, Taiwan) according to the manufacturer's protocol. […]

CCCCCCCC/C=C\CCCCCCCC(=O)NCCO [OEA, oleoylethanolamide]
increase in IκBα mRNA levels induced by ethanol (IκBα): did not counteract
increase in IκBα protein expression induced by ethanol (IκBα): did not counteract
anxiety-type behavior: percentage of entries and time in the open arms ([1]; 24 hours after ethanol intoxication): clear trend showing a clear anxiolytic effect of OEA in the animals treated with ethanol and control, the Dunn post hoc test found no significant effects in multiple comparisons
anxiety-type behavior: percentage of entrances and time of permanence in the open arms ([1]; 12 days after ethanol intoxication): not significant
ethanol-induced increase in IL-1β protein levels (IL-1β; frontal cortex): prevented
ethanol-induced increase of IL-1β mRNA expression (IL-1β; frontal cortex): did not prevent this effect
ethanol-induced increase of IL-1β (IL-1β; plasma): prevented
alcohol-induced depressive symptoms [2]: able to prevent alcohol-induced depressive symptoms
immobility [2]: normalizing
latency [2]: normalizing
swimming [2]: normalizing
increase in ethanol-induced MyD88 protein expression (MyD88): inhibited the increase
ethanol-induced increase in the expression of iNOS mRNA (iNOS): completely prevented
increase in nuclear activity of p65 induced by ethanol (p65 subunit of NF-kB; frontal cortex nuclear extracts, OEA pretreatment): counteracted
increase in p65 mRNA levels induced by ethanol (p65 subunit of NF-kB; frontal cortex, OEA pre-administration): partially prevented
increase in HMGB1 induced by ethanol intoxication (HMGB1; OEA 5 mg/kg ip 10 min before each ethanol dose): prevented
nuclear/cytoplasmic HMGB1 ratio (HMGB1; OEA pretreatment + ethanol): 1.48
ethanol-induced overexpression of TLR4 mRNA (TLR4): able to reduce the overexpression
ethanol-induced overexpression of TLR4 protein (TLR4): able to reduce the overexpression
increase in MD2 protein induced by ethanol (MD2): inhibited the increase
ethanol-induced increase in plasma corticosterone levels (corticosterone; animals exposed to ethanol intoxication, OEA pretreatment): completely prevented
plasma corticosterone levels (corticosterone; control animals): did not modify
ethanol-induced increase of TNF-α mRNA expression (TNF-α; frontal cortex): did not prevent this effect
ethanol-induced increase of TNF-α protein levels (TNF-α; frontal cortex): not avoided
ethanol-induced increase of TNF-α (TNF-α; plasma): partially prevented
HNE formation (lipid peroxidation) (4-HNE): decreased the HNE formation
COX-2 mRNA levels (COX-2): reduced COX-2 mRNA levels with ethanol, but not in the animals treated with vehicle
ethanol-induced increase of MCP-1 levels (MCP-1): prevented this effect
LPS plasma levels (LPS): 44 % increase over control
ethanol-induced overexpression of caspase-8 mRNA (caspase-8): reversed this effect
alcohol-induced overexpression of caspase-3 mRNA (caspase-3): not able to prevent this effect
ethanol-induced increase in caspase-3 activity (caspase-3): reversed
ethanol-induced overexpression of caspase-3 protein (caspase-3): prevented
